Source: PubChem BioAssay AID602121 (Johns Hopkins Ion Channel Center, 2011)
The source made the active and inactive calls.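 The calls were made as follows: active = opens the KCNQ1 potassium channel at some tested dose and gives a fittable dose response curve; inactive = the rest.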

Biological target: Potassium voltage-gated channel subfamily KQT member 1 (Homo sapiens) (UniProt P51787)
Assay: human KCNQ1 channel activators, SAR follow-up, automated patch clamp, CHO cells, set 2 (AID 602121)
Details: at 30 µM (top of the series)

Sequence of Potassium voltage-gated channel subfamily KQT member 1 (Homo sapiens) (P51787 whole entry, looked up): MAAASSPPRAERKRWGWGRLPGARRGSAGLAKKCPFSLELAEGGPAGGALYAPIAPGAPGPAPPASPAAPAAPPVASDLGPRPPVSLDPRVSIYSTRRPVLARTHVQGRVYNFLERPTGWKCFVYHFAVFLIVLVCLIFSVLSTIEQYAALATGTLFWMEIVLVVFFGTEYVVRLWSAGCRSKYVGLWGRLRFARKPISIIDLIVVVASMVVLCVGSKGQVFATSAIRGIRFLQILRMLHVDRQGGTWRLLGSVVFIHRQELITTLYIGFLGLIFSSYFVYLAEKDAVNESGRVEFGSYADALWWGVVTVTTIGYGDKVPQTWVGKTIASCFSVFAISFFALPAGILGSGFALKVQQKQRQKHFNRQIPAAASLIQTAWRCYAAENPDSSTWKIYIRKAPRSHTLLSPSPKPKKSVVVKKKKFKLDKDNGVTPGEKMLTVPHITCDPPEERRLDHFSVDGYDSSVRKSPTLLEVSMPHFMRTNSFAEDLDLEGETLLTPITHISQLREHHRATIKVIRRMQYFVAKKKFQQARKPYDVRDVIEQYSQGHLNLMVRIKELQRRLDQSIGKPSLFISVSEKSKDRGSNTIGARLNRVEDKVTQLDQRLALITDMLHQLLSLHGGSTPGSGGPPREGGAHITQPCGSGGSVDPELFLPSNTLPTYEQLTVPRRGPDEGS

SMILES | current activation
COC(=O)c1cccc(NC(=O)[C@H]2CCCCN2S(=O)(=O)c2ccc(C)cc2)c1 | inactive
Cc1ccc(S(=O)(=O)N2CCCC[C@@H]2C(=O)Nc2ccc(C)c(Br)c2)cc1 | inactive
CCc1cccc(NC(=O)[C@H]2CCCCN2S(=O)(=O)c2ccc(C)cc2)n1 | inactive
Cc1ccc(S(=O)(=O)N2CCCC[C@@H]2C(=O)Nc2cccc([N+](=O)[O-])c2)cc1 | inactive
COc1cccc(NC(=O)[C@H]2CCCCN2S(=O)(=O)c2ccc(C)cc2)c1 | inactive
Cc1ccc(S(=O)(=O)N2CCCC[C@@H]2C(=O)Nc2ccncc2)cc1 | inactive
Cc1ccc(S(=O)(=O)N2CCCC[C@@H]2C(=O)Nc2cccc(Cl)n2)cc1 | inactive
Cc1ccc(S(=O)(=O)N2CCCC[C@@H]2C(=O)Nc2ccccc2)cc1 | inactive

Same assay, conditions: automated patch clamp current

SMILES | EC50
Cc1ccc(S(=O)(=O)N2CCCC[C@@H]2C(=O)Nc2cccc(C(F)(F)F)c2)cc1 | 3.24 µM
Cc1ccc(S(=O)(=O)N2CCCC[C@@H]2C(=O)Nc2ccc(C)c(C)c2)cc1 | 2.25 µM
COc1ccc(-c2csc(NC(=O)[C@H]3CCCCN3S(=O)(=O)c3ccc4c(c3)OCO4)n2)cc1 | 0.778 µM
Cc1ccc(S(=O)(=O)N2CCCC[C@@H]2C(=O)Nc2ccc(F)c(C)c2)cc1 | 3.35 µM
